Assay type in all cases: functional
For experiment [1], the species on record is Cavia porcellus. Description: The compound was tested for […] activity against guinea pig detrusor (bladder) strip mildly depolarized with 15 mM KCl.
Experiment [2] is filed under the species Cavia porcellus. In words: The compound was tested for […] activity against guinea pig vascular tissue (portal vein) strip mildly depolarized with 15 mM KCl.
Experiment [3] is filed under the species Cavia porcellus. Description: The compound was tested for […] activity against guinea pig detrusor (bladder) strip contracted with 80 mM KCl.
Experiment [4] is filed under the species Cavia porcellus. Description: Tested for percent increase of efflux rate constant of 50 uM of compound using guinea pig detrusor.

The structures appear in SMILES notation.

As a reminder, the IC50 is the concentration at which inhibition is half-maximal. A lower IC50 goes with greater potency. On to `N#Cc1ccc(C2C3=C(O)CCCC3=NC3=C2C(=O)CCC3)cc1C(F)(F)F` (stereo not drawn), for which half-maximal inhibition in the experiment listed under Cavia porcellus [1] (IC50) required 420 nM.
The same measure, in the same setting: the same measure for `O=C1CCCC2=C1C(c1ccc(-c3ccccc3)cc1)C1=C(O)CCCC1=N2` (stereo not drawn): 1370 nM.
The same measure, in the same setting: the same measure for `O=[N+]([O-])c1cccc(C2C3=C(CCCC3)N=C3CCCC(O)=C32)c1` (stereo not drawn): 510 nM.
Still for that read-out and setting: the same measure for `O=C1CCCC2=C1C(c1ccc(F)c(Cl)c1)C1=C(O)CCCC1=N2` (stereo not drawn): 460 nM; for `CC1=CC(c2cccc([N+](=O)[O-])c2)C2=C(O)CCCC2=N1` (stereo not drawn): 660 nM.
With `O=C1CCCC2=C1C(c1cc([N+](=O)[O-])cs1)C1=C(O)CCCC1=N2` (stereo not drawn), the 50% inhibitory concentration (IC50) came to 9 nM in the experiment filed under Cavia porcellus [2] and 160 nM in the experiment listed under Cavia porcellus [1].
On to `O=C1CCCC2=C1C(c1cccc([N+](=O)[O-])c1)C1=C(O)CCCC1=N2` (stereo not drawn), for which the IC50 in the experiment filed under Cavia porcellus [2] was found to be 100 nM; in the experiment listed under Cavia porcellus [3], 47800 nM; in the experiment listed under Cavia porcellus [1], 4440 nM. The same compound displayed an Increase in the experiment filed under Cavia porcellus [4] of 30.7%.
With `COC(=O)C1=C(C)NC(C)=C(C(=O)OCCCN2CCC(c3ccccc3)(c3ccccc3)CC2)[C@@H]1c1cccc([N+](=O)[O-])c1` [DEXNIGULDIPINE], in the experiment filed under Cavia porcellus [1], the IC50 is > 30000 nM.
The same measure, in the same setting: next, `COC(=O)C1=C(C)NC(C)=C(C(=O)OCCCN2CCC(c3ccccc3)(c3ccccc3)CC2)[C@H]1c1cccc([N+](=O)[O-])c1` [NIGULDIPINE]: > 30000 nM.

(Values after ChEMBL document CHEMBL1127164, “Dihydropyridine KATP potassium channel openers” (Bioorg Med Chem Lett, 1993).)
